# Several values for one entry are separate records, joined by “and”; a condition that tells them apart may be missing. Equal values may be shown once.
# Experiments:
# HSV-1 [1] = assay: activity selectivity assay, HSV-1 infected Vero cells (cytopathogenic effect, fluorescein diacetate readout); type: cell-based, Herpes simplex virus; settings: Human alphaherpesvirus 1
# Description: (§1) HSV (HSV-1 Walki, HSV-1F, HSV-2 MS, HSV clinical isolates and HSV resistant strains) was cultivated on Vero cells (ATCC CCL-81) under the following conditions: The cells were grown in M199 medium (5% foetal calf serum, 2 mM glutamine, 100 IU/mL penicillin, 100 μg/mL streptomycin) in cell culture bottles at 37° C. and 5% CO2. The cells were splitted twice per week (1:4). For the infection, the medium was removed, the cells were washed with Hank's solution, detached using 0.05% trypsin, 0.02% EDTA and incubacted at a density of 4×10^5 cells/mL under the above-mentioned conditions for 24 h. The medium was removed and the virus solution was added at an m.o.i of <0.05 in a volume of 2 mL per 175 cm^2 surface. The infected cells were incubated at 37° C., 5% CO2 for 1 h and then the medium was made up to a volume of 50 mL per 175 cm^2 bottle. […] The virus was released by freezing (−80° C.) and thawing (37° C.) the infected cultures twice. Cell debris was removed by centrifugation (300 g, 10 min, 4° C.) and the supernatant was frozen in aliquots at −80° C.
# (§2) The antiviral action was determined using a patented (DE10235967 and WO2004/015416) and subsequently published activity selectivity assay (G. Kleymann et al. J. Biomol. Screen. 2004; 9:578) in 96- or 384-well mictrotitre plates using various cell lines of neuronal, lymphoid and epithelial origin, such as, for example, Vero (african green monkey kidney cells), MEF (murine embryonal fibroblasts), HELF (human embryonal fibroblasts), NT2 (human neuronal cell line) or Jurkat (human lymphoid T-cell line). The relevant experimental details of the above mentioned patent and publication to evaluate the antiviral activity of the invention (disclosed compounds) are described below.
# (§3) The effect of the substances on the spreading of the cytopathogenic effect was determined in comparison to the reference compound acyclovir-sodium (Zovirax™), a clinically approved anti-herpes chemotherapeutic.
# (§4) The compounds (50 mM stock solution dissolved in DMSO) are examined on microtitre plates (for example 96-well flat bottom cell culture plates) at a final concentration of 250 to 0.5 μM or, in case of potent antiviral compounds, 250 to 0.5 nM in 2 to 4 replications (4 to 2 substances per plate). Also examined are toxic and cytostatic effects or precipitation of the compounds. After an appropriate dilution of the compounds (1:2) on the microtitre plate in the appropriate medium (100 μL), a suspension of cells (50 μL, 1×10^4 cells per well), such as, for example of Vero cells in M199 (medium 199 with 5% foetal calf serum, 2 mM glutamine and optionally 100 IU/ml penicillin and 100 μg/ml streptomycin) or of MEF or HELF cells in EMEM (Eagle's Minimum Essential Medium with 10% foetal calf serum, 2 mM glutamine and optionally 100 IU/mL penicillin and 100 μg/mL streptomycin), or of NT2- and Jurkat cells in DMEM (([…] glucose plus pyridoxin) with 10% foetal calf serum, 2 mM glutamine, 1 mM sodium pyruvate, non-essential amino acids and optionally 100 IU/mL penicillin and 100 μg/mL streptomycin) is added to each well and the cells in the relevant wells are infected with the appropriate amount of virus (HSV-1 or HSV-2 having an m.o.i (multiplicity of infection) of 0.0025 for Vero, HELF and MEF cells and an m.o.i. of 0.1 for NT2 and Jurkat cells). The plates are then incubated at 37° C. in a cell CO2 incubator (5% CO2) for several days. After this time, the cell lawn of, for example, Vero cells in the substance-free virus controls, starting from 25 infections centres, is completely destroyed or lysed by the cytopathogenic effect (CPE) of the Herpes viruses (100% CPE). The plates are initially evaluated visually using a microscope and then analysed using a fluorescent dye. To this end, the cell supernatant of all wells of the MTP is aspirated and the wells are filled with 250 μL PBS (phosphate buffered saline) wash solution. […]
# HSV-2 = assay: activity selectivity assay, HSV-2 infected Vero cells; type: cell-based, Herpes simplex virus; settings: Human alphaherpesvirus 2
# Description: as §1, §2, §3, §4
# HSV-1 ACV resistant = assay: activity selectivity assay, ACV resistant HSV-1; type: cell-based, Herpes simplex virus; settings: Human alphaherpesvirus 1, read-out: IC50 (HSV-1 ACV resistant)
# Description: as §1, §2, §3, §4
# Human Carboanhydrase II = Human Carboanhydrase II (Homo sapiens, UniProt P00918); assay: carbonic anhydrase activity assay (pH indicator method); type: biochemical
# Description: Carbonic anhydrase II activity and its respective inhibition was performed according to R. Iyer et al. J. Biomol. Screen.
# A protocol for determination of the carbonic anhydrase enymatic activity at rt using the pH indicator method is described below:
# 1 μL inhibitor (50 mM stock solution in DMSO) is diluted to a final test concentration ranging from 100 μM down to 1 nM (or 1 μL water in controls) and incubated for 2 min with 0.5 to 2 EU human […] (180 U/mg) in 400 μL water and 200 μL phenol red indicator solution (20 mg/L). An enzymactic unit (EU) is defined as an amount which doubles the non catalyzed rate. […] The time to colour change (pH 7.2) is determined with a microchronometer or stop watch.
# The percentage of inhibition is calculated as described below: (time to color change without enzyme time to color change with enzyme and inhibitor)/(time to color change without enzyme time to color change with enzyme).
# [2] = aqueous solubility (PBS, pH 7.4), shake flask; type: physicochemical
# Description: The aqueous solubility (PBS, pH 7.4) was determined at Eurofins, Cerep, Panlabs according to C. A. Lipinski et al. Adv. Drug Del. Rev. 1997, 46:3. Measurement of the aqueous solubility was performed according to Lipinski, C. A. et al. (1997), Adv. Drug Del. Rev., 46: 3-26. The relevant information from the literature is described below. […] In addition, chromatographic purity (%) was defined as the peak area of the principal peak relative to the total integrated peak area in the HPLC chromatogram of the calibration standard.
# [3] = pharmacokinetics in male mice strain C57BL/6J; type: in vivo; settings: mouse
# Description: Pharmcokinetic parameters were determined for Example 3 in male mice strain C57BL/6J at an intraveneous (i.v.) dose of 5 mg/kg (5% DMSO in heterologous plasma, 2.5 ml/kg) and an oral dose (p.o) of 10 mg/kg (DMSO/0.5% HPMC (5:95), 5 ml/kg). […] Significant concentrations in the brain of treated mice (2-3 μM, 1000 ng compound/g brain) were detected 6 h post administration at an oral dose of 10 mg/kg.
# HSV-1 [4] = assay: HSV-1 intranasal infection mouse model, survival; type: in vivo; settings: Human alphaherpesvirus 1, inhaled or nasal, 120 h; female BALB/ABom mice, intranasal HSV-1, treatment for 5 days; read-out: ED50 (dose at which 50% of the infected animals survive)
# Description: Animal experiments were performed according to patent WO2001/047904 or subsequent publications (U. A. K. Betz et al. Antimicrob. Agents Chemother. 2002; 46:1766 or G. Kleymann et al. Nat. Med. 2002; 8:392). The relevant experimental details of the above mentioned patent and publication to evaluate the antiviral activity of the invention (disclosed compounds) in-vivo (animal models) are described below.
# 6 week-old female mice, BALB/ABom strain were obtained from a commercial breeder.
# The animals were anaesthetized with Et2O in a sealed glass vessel. 50 μL of a dilution of the virus stock (infection dose 5×10^4 PFU (Plaque forming units)) were introduced into the nose of the anaesthetized animals using a pipette. In 90 to 100% of the animals, this infection dose causes death by generalized infection with prominent respiratory and central-nervous symptoms on average after 5 to 8 days.
# 6 hours after infection animals were treated with doses of 0.1-150 mg/kg of body mass, 3 times per day at 7 am, 2 pm and 7 pm (tid) or 2 times per day at 7 am and 7 pm (bid) or once daily at 1 pm (od) for a period of 5 days. […] After the last administration, the animals were monitored further and the time of death was determined.
SMILES,IC50 (HSV-1 [1]),IC50 (HSV-2),IC50 (HSV-1 ACV resistant),other results
"Cc1nc(N(C)C(=O)Cc2ccc(-c3cc(F)ccc3F)cc2)sc1S(C)(=O)=NC#N (stereo not shown) [Example 14, N-[5-(N-Cyano-S-methyl-sulfonimidoyl)-4-methyl-thiazol-2-yl]-2-[4-(2,5-difluorophenyl)phenyl]-N-methyl-acetamide]",1000 to 5000 nM,1000 to 5000 nM,1000 to 5000 nM,
"Nc1nc2c(ncn2COCCO)c(=O)[nH]1 [Acyclovir, reference compound]",500 to 3000 nM,500 to 3000 nM,> 25000 nM,
"Cc1nc(N(C)C(=O)Cc2ccc(-c3cc(F)ccc3F)cc2)sc1/S(C)=N\C#N (stereo not shown) [Example 13, N-[5-(N-Cyano-S-methyl-sulfinimidoyl)-4-methyl-thiazol-2-yl]-2-[4-(2,5-difluorophenyl)phenyl]-N-methyl-acetamide]",300 to 3000 nM,300 to 3000 nM,300 to 3000 nM,
"Cc1nc(N(C)C(=O)Cc2ccc(-c3cc(F)ccc3F)cc2)sc1P(=O)(O)O [Example 9, (2-(2-(2′,5′-Difluoro-[1,1′-biphenyl]-4-yl)-N-methylacetamido)-4-methylthiazol-5-yl)phosphonic acid]",25000 to 100000 nM,25000 to 100000 nM,25000 to 100000 nM,
"CSc1sc(N(C)C(=O)Cc2ccc(-c3cc(F)ccc3F)cc2)nc1C [Example P4b, 2-(2′,5′-Difluoro-[1,1′-biphenyl]-4-yl)-N-methyl-N-(4-methyl-5-(methylthio)thiazol-2-yl)acetamide]",2000 to 6000 nM,2000 to 6000 nM,2000 to 6000 nM,
"Cc1nc(N(C)C(=O)Cc2ccc(-c3cc(F)ccc3F)cc2)sc1[S+](C)[O-] (stereo not shown) [Example 4, 2-(2′,5′-Difluoro-[1,1′-biphenyl]-4-yl)-N-methyl-N-(4-methyl-5-(methylsulfinyl)thiazol-2-yl)acetamide]",100 to 500 nM,100 to 500 nM,100 to 500 nM,
"Cc1nc(N(C)C(=O)Cc2ccc(-c3ccccn3)cc2)sc1S(=N)(N)=O (stereo not shown) [Example 3-1, N-methyl-N-(4-methyl-5-sulfamimdoylthiazol-2-yl)-2-(4-(pyridin-2-yl)phenyl)acetamide]",5 to 50 nM,5 to 50 nM,5 to 50 nM,
"Cc1nc(N(C)C(=O)Cc2ccc(-c3cc(F)ccc3F)cc2)sc1S(=O)(=O)NC#N [Example 12, N-(5-(N-Cyanosulfamoyl)-4-methylthiazol-2-yl)-2-(2′,5′-difluoro-[1,1-biphenyl]-4-yl)-N-methylacetamide]",100 to 1000 nM,100 to 1000 nM,100 to 1000 nM,
"Cc1nc(N(C)C(=O)Cc2ccc(-c3cc(F)ccc3F)cc2)sc1S(C)(=N)=O (stereo not shown) [Example 7, 2-(2′,5′-Difluoro-[1,1′-biphenyl]-4-yl)-N-methyl-N-(4-methyl-5-(S-methylsulfonimidoyl)thiazol-2-yl)acetamide]",25 to 100 nM,25 to 100 nM,25 to 100 nM,
"Cc1nc(N(C)C(=O)Cc2ccc(-c3cc(F)ccc3F)cc2)sc1S(=N)(N)=O (stereo not shown) [Example 3, 2-(2′,5′-Difluoro-[1,1′-biphenyl]-4-yl)-N-methyl-N-(4-methyl-5-sulfamimidoylthiazol-2-yl)acetamide]",5 to 50 nM,5 to 50 nM,5 to 50 nM,"IC50 (Human Carboanhydrase II): > 5 µM; carboanhydrase inhibition (IC50) (Human Carboanhydrase II; text statement before Table 2): no or reduced carbonic anhydrase inhibition; solubility at 24 h ([2]; PBS buffer, aqueous buffer, kinetic from dmso stock, pH 7.4, shake flask, 24 h incubation, RT, read-out: Solubility [μM] (PBS, pH 7.4, 200 μM Test concentration)): 16.2 µM; solubility in comparison to Example 87 (WO2001/047904) ([2]; pH 7.4): significantly increased solubility (at least one order of magnitude); concentration at 6 h ([3]; male, C57BL/6J, brain, mice, 6 h post administration, oral dose of 10 mg/kg): 2 µM to 3 µM and 1000 ng/g; bioavailability ([3]; plasma, oral, male C57BL/6J mice, 10 mg/kg p.o. vs 5 mg/kg i.v.): 94%; Tmax ([3]; plasma, po, male C57BL/6J mice, 10 mg/kg p.o.): 1 h; Cmax ([3]; plasma, po, male C57BL/6J mice, 10 mg/kg p.o., read-out: maximal plasma concentration (cmax)): 13.9 µM; half-life ([3]; plasma, male C57BL/6J mice, oral dose of 10 mg/kg, read-out: terminal half life (converted)): ~210 min; ED50 (HSV-1 [4]): < 10 mg/kg"
